Assay results from patent US7326721B2 (Hypnion, Inc., priority 2003, dated 2008).
“And” between values parts separate entries of the source, which are not always exact repeats. Identical values can stand only once.

What was measured:
Dopamine Transporter = Dopamine Transporter (Homo sapiens, UniProt Q01959); test: Table 12 panel: Dopamine Transporter; conditions: 1.0E−6, average N=2, read-out: percentage inhibition of specific binding
Source text: (§1) The percentage inhibition (average; N=2) for these receptors is shown below in Table 12.
(§2) Values in Table 12 are expressed as percentage inhibition of specific binding, and these values represent the average of replicate tubes at each of the concentrations tested.

Glutamate, Kainate Site = test: Table 12 panel: Glutamate, Kainate; type: binding; conditions: 1.0E−6, average N=2
Source text: as §1, §2

[1] = tested on: Glutamate, NMDA Agonist Site; test: Table 12 panel: Glutamate, NMDA Agonist; type: binding; conditions: 1.0E−6, average N=2
Source text: as §1, §2

[2] = tested on: Muscarinic, Non-selective, Peripheral; test: Table 12 panel: Muscarinic, Peripheral; type: binding; conditions: 1.0E−6, average N=2
Source text: as §1, §2

Opioid, Non-selective = test: Table 12 panel: Opioid; type: binding; conditions: 1.0E−6, average N=2
Source text: as §1, §2

Orphenin (hr) = target: T1, Orphenin (hr) (Homo sapiens, UniProt P41146); test: Table 12 panel: Orphenin; conditions: 1.0E−6, average N=2, read-out: percentage inhibition of specific binding
T1 construct: expressed in transfected cells
Source text: as §1, §2

Serotonin, Non-selective = test: Table 12 panel: Serotonin, Non-selective; type: binding; conditions: 1.0E−6, average N=2
Source text: as §1, §2

Sigma, Non-selective = test: Table 12 panel: Sigma; type: binding; conditions: 1.0E−6, average N=2
Source text: as §1, §2

Calcium Channel, Type N = Calcium Channel, Type N (Homo sapiens, UniProt Q00975); test: Table 12 panel: Calcium Channel, Type N; conditions: 1.0E−6, average N=2, read-out: percentage inhibition of specific binding
Source text: as §1, §2

[3] = tested on: Potassium Channel, ATP-Sensitive; test: Table 12 panel: Potassium Channel, ATP-Sensitive; type: binding; conditions: 1.0E−6, average N=2
Source text: as §1, §2

[4] = tested on: Potassium Channel, Ca2+ Act., VI; test: Table 12 panel: Potassium Channel, Ca2+ Act.; type: binding; conditions: 1.0E−6, average N=2
Source text: as §1, §2

[5] = tested on: Corticotropin Releasing Factor, Non-selective; test: Table 12 panel: CRF; type: binding; conditions: 1.0E−6, average N=2
Source text: as §1, §2

Neurokinin, NK1 = Neurokinin, NK1 (Homo sapiens, UniProt P25103); test: Table 12 panel: NK1; conditions: 1.0E−6, average N=2, read-out: percentage inhibition of specific binding
Source text: as §1, §2

Neurokinin, NK3 (NKB) = Neurokinin, NK3 (NKB) (Homo sapiens, UniProt P29371); test: Table 12 panel: NK3; conditions: 1.0E−6, average N=2, read-out: percentage inhibition of specific binding
Source text: as §1, §2

[6] = tested on: Vasoactive Intestinal Peptide, Non-selective; test: Table 12 panel: VIP; type: binding; conditions: 1.0E−6, average N=2
Source text: as §1, §2

Esterase, Acetylcholine = Esterase, Acetylcholine (Homo sapiens, UniProt P22303); test: Table 12 panel: Acetylcholine esterase; type: biochemical; conditions: 1.0E−6, average N=2
Source text: as §1, §2

[7] = Protein binding in rat plasma; type: in vitro ADME
Procedure: (§3) HY2901 was administered to rats, dogs, and cynomolgus monkeys at a dose of 3 mg/kg orally and intravenously. Plasma samples were collected from all species for pharmacokinetic analysis. […] HY2901 is 75% protein bound in rat plasma and 60% protein bound in human plasma.

[8] = Protein binding in human plasma; type: in vitro ADME
Procedure: as §3

[9] = Urinary excretion in animal species; type: in vivo; conditions: animal species administered HY2901
CYP 2C9 = target: T2, CYP 2C9 (Homo sapiens, UniProt P11712); test: Cytochrome P450 inhibition: CYP 2C9; type: in vitro ADME; conditions: human microsomal preparation
T2 construct: in a commercially available human microsomal preparation; purchased; host or cells: human microsomal preparation
Procedure: (§4) Cytochrome P450 inhibition was studied with HY2901 in vitro. […] In addition, the in vitro rate of metabolism in rat, dog, monkey, and human hepatocyte cultures was determined for HY2901.

CYP 2D6 = target: T3, CYP 2D6 (Homo sapiens, UniProt P10635); test: Cytochrome P450 inhibition: CYP 2D6; type: in vitro ADME; conditions: human microsomal preparation
T3 construct: in a commercially available human microsomal preparation; purchased; host or cells: human microsomal preparation
Procedure: as §4

rat hepatocytes = test: In vitro rate of metabolism in rat hepatocyte cultures; type: in vitro ADME
Procedure: as §4

[10] = 14-day dog study with recovery phase; type: in vivo; conditions: Beagle, dog, in vivo
Procedure: (§5) The toxicity and the toxicokinetics of HY2901 when administered daily via oral gavage (Phase 1) or capsules (Phase 2) to dogs for at least 14 days was determined. The reversibility, persistence, or delayed occurrence of observable effects following a 7-day (Phase 1) or 14-day (Phase 2) recovery period was also assessed. Doses of 3, 10, 30, and 70 mg/kg/day were studied.

Beagles = test: 14-day dog study with recovery phase; type: in vivo
Procedure: as §5

Wistar rats = test: Acetic acid-induced abdominal spasm test in the rat; type: in vivo
Procedure: The objective of this example was to determine the analgesic activity of HY-2901 (Also referred to herein as Compound 49a) following oral administration. Analgesic activity was assessed abdominal spasm test in the rat and mouse. Analgesic activity is also assessed using the tail clip test in the mouse, tail flick test in the rat, Randall-Selitto test in the rat and comparisons are made with a vehicle control group. Reference compounds ASA (acetylsalicylic acid) and morphine are also included for comparison.
The tail clip and tail flick test provide useful information about the central analgesic activity of the test article. The Randall-Selitto test provides information on the compound's ability to modify a hyperalgesic state and the abdominal spasm test provides information on the peripheral analgesic activity of the test article. The test article is administered by oral gavage, this being the intended clinical route of administration. The dose levels employed are expected to encompass the efficacy dose and provide an adequate safety margin.
All formulations were prepared on each day of dosing. The test article (HY-2901) was formulated in 0.25% (w/v) MC at the highest concentration required. Lower doses were obtained by serial dilution of the highest concentration using 0.25% (w/v) MC. The reference compound, acetylsalicylic acid, was formulated in 0.25% (w/v) MC at the required concentrations. Brewer's yeast was formulated in water for injection at the required concentration. Acetic acid was diluted with water for injection to provide the required concentration for administration.
An adequate number of male Crl:CD-I(ICR)BR mice and Wistar rats were obtained from Charles River (UK) Ltd., Margate, Kent. The mice were approximately 4 weeks of age and weigh between 18 and 22 g on arrival. The rats were approximately 5 weeks of age and weigh between 150 and 170 g on arrival. The age and weight of the animals at the start of the study was documented in the raw data and final report,
Each animal received a single administration of vehicle, test article or reference compound by oral gavage, using a constant dose volume […]. Individual dose volumes were based on individual body weights obtained on the day of dosing.
Forty-five minutes following oral administration each animal received a 1 mL intraperitoneal injection of 1% acetic acid. Animals were immediately placed into individual observation chambers and the number of abdominal spasms elicited over the subsequent 25-minute period was recorded.

Sequence of Neurokinin, NK3 (NKB) (P29371 whole entry): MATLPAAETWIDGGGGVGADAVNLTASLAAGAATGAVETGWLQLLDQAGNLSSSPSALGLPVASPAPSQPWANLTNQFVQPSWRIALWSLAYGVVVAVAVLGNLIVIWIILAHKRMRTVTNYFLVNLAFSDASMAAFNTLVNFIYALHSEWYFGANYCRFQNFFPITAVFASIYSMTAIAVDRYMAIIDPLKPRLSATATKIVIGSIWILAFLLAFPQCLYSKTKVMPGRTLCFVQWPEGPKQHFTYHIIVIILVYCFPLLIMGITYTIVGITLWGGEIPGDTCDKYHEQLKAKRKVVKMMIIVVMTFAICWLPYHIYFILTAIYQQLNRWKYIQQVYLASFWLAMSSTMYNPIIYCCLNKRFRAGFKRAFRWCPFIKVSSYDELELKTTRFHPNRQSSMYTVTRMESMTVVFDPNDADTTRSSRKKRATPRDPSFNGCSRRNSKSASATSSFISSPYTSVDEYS
T2 sequence (P11712 whole entry): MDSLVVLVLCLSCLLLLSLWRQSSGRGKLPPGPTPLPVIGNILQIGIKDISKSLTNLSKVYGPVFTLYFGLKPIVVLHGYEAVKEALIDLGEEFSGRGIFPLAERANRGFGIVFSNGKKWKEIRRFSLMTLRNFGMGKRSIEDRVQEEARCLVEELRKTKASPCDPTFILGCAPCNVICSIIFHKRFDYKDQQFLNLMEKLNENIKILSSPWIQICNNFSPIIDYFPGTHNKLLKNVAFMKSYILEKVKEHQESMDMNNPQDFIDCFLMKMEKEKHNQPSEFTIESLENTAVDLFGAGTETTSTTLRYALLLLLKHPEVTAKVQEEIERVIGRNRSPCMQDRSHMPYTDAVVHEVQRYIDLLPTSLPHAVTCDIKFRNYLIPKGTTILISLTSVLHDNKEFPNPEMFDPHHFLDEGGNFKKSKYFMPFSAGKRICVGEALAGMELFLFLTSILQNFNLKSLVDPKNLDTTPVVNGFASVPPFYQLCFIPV
Sequence of Dopamine Transporter (Q01959 whole entry): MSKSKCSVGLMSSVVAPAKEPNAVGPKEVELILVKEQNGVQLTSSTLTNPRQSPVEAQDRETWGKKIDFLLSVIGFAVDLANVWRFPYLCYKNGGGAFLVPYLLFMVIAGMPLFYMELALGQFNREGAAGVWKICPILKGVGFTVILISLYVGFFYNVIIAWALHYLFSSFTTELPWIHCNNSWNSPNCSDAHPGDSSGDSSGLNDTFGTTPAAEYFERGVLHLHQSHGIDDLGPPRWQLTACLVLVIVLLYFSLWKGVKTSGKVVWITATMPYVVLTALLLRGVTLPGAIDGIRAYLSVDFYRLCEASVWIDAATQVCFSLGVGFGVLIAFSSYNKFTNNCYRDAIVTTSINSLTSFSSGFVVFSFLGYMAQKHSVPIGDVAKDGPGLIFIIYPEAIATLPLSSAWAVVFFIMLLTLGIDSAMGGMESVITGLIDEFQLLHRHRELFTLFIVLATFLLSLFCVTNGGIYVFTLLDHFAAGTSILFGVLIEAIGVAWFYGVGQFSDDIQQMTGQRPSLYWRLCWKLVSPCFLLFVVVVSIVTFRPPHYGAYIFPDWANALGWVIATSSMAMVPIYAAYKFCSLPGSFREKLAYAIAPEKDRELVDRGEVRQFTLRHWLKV
Sequence of Calcium Channel, Type N (Q00975 whole entry): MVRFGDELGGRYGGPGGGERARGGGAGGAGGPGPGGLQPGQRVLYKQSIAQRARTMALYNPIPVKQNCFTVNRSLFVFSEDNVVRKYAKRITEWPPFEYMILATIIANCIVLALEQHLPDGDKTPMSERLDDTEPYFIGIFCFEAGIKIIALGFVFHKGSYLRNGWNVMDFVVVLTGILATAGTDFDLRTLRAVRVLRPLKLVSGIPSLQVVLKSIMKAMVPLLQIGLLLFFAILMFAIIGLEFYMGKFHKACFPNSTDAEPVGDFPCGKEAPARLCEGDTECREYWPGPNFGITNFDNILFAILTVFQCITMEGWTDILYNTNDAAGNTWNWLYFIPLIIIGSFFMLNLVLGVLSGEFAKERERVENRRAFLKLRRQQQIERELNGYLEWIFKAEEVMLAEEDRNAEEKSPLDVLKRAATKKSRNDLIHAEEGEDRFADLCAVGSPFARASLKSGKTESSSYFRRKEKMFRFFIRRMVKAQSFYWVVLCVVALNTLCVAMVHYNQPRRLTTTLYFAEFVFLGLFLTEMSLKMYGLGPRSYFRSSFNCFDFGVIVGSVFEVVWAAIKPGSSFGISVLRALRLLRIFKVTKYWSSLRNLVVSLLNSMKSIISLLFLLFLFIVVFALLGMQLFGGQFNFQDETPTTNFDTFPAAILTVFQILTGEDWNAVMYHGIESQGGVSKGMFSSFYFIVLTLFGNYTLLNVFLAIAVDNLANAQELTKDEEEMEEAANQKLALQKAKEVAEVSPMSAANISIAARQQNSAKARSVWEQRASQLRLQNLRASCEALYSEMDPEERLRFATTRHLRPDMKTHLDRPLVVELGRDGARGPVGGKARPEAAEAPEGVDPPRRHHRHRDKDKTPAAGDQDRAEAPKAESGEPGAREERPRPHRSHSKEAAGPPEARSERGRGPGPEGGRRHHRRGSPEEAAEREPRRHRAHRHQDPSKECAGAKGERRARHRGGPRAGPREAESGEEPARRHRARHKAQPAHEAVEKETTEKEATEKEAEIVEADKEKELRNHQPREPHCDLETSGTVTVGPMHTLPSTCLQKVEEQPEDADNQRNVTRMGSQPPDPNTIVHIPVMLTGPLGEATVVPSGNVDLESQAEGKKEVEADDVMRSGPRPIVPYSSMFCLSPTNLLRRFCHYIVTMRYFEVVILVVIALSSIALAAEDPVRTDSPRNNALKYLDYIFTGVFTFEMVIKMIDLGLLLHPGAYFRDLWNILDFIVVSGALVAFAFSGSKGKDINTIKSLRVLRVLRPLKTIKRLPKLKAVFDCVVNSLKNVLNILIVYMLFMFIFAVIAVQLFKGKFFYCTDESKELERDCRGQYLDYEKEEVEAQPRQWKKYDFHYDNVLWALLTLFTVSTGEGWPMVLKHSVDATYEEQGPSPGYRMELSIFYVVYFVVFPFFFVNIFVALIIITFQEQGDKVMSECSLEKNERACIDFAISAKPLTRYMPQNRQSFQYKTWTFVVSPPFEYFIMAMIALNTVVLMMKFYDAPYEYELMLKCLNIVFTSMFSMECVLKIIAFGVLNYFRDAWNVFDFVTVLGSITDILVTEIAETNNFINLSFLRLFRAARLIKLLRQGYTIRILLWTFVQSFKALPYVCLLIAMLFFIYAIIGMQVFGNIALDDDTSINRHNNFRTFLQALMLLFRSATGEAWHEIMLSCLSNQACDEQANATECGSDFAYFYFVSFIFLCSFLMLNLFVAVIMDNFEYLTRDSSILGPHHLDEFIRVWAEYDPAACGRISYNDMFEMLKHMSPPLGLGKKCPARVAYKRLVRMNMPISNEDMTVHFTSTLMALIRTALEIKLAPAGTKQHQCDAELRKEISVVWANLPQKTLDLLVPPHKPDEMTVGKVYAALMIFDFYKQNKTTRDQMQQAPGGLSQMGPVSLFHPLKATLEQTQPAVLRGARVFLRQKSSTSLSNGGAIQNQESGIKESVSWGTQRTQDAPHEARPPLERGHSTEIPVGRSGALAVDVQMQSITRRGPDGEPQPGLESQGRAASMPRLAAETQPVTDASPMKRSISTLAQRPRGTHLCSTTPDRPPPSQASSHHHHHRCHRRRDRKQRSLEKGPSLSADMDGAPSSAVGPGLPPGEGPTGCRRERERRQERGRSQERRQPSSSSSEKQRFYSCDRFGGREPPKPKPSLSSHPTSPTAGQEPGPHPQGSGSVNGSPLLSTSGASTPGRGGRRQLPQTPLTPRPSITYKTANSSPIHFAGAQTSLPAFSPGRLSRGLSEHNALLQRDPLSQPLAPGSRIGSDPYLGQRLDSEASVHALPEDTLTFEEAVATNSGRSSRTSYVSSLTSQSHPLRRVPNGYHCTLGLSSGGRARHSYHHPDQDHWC
Sequence of Neurokinin, NK1 (P25103 whole entry): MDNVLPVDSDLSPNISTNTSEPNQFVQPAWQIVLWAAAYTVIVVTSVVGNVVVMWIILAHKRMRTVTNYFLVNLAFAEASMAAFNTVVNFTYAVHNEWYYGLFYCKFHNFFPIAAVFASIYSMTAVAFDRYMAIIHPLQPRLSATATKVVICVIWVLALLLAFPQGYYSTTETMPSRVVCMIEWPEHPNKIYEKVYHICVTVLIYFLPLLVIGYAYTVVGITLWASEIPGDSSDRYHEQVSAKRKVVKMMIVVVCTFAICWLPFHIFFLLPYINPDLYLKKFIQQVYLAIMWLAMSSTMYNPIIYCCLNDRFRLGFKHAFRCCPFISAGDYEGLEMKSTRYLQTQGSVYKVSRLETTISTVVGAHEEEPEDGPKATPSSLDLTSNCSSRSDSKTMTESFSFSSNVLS
Sequence of Esterase, Acetylcholine (P22303 32-614): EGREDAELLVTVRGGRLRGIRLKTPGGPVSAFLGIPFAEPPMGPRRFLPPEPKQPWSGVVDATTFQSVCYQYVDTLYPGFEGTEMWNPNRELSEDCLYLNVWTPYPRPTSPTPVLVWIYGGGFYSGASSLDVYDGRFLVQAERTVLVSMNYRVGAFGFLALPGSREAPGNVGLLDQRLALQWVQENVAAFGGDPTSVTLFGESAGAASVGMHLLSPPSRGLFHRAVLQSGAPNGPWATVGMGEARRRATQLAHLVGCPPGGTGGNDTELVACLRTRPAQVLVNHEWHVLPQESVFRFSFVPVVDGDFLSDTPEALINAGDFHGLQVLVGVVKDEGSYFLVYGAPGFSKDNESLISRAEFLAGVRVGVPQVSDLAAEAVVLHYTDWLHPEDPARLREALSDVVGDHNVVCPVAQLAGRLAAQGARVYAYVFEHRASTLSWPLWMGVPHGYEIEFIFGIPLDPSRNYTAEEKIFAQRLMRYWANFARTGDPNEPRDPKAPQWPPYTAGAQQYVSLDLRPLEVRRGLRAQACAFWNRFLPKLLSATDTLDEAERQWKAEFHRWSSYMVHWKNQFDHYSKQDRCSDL

## CC(CC(=O)O)N1CCC(=C2c3ccc(F)cc3COc3ccccc32)CC1 (stereo not shown) [Compound 37]
Dopamine Transporter
  inhibition at 1 µM: 2.14%
Glutamate, Kainate Site
  percentage inhibition of specific binding: 1.51%
[1]
  percentage inhibition of specific binding: −5.56%
[2]
  percentage inhibition of specific binding: 5.37%
Opioid, Non-selective
  percentage inhibition of specific binding: −9.30%
Orphenin (hr)
  inhibition at 1 µM: 3.53%
Serotonin, Non-selective
  percentage inhibition of specific binding: 21.45%
Sigma, Non-selective
  percentage inhibition of specific binding: 13.27%
Calcium Channel, Type N
  inhibition at 1 µM: 3.45%
[3]
  percentage inhibition of specific binding: 26.16%
[4]
  percentage inhibition of specific binding: −12.71% ^
[5]
  percentage inhibition of specific binding: 4.31%
Neurokinin, NK1
  inhibition at 1 µM: 10.3%
Neurokinin, NK3 (NKB)
  inhibition at 1 µM: -0.23%
[6]
  percentage inhibition of specific binding: 2.51%
Esterase, Acetylcholine
  percentage inhibition: 2.54%

## CC(C)(CN1CCC(=C2c3ccc(F)cc3COc3ccccc32)CC1)C(=O)O [Compound 49a]
[7]
  protein bound: 75%
[8]
  protein bound: 60%
[9]
  unchanged drug and metabolites in urine: has been found in the urine
CYP 2C9
  inhibition of CYP 2C9 activity: did not inhibit
CYP 2D6
  inhibition of CYP 2D6 activity: did not inhibit
Rat hepatocytes
  in vitro metabolism: extensively metabolized
[10]
  NOAEL at 14 days: 70 mg/kg/day
Beagles; 3 mg/kg/day Phase 1 dogs
  clinical observations: no treatment-related clinical observations
Beagles; Phase 1 and 2
  respiration rates, rectal body temperatures, body weights, food consumption, electrocardiograms, ophthalmic examinations: no changes
Beagles; Phase 2 (capsules)
  clinical observations: treatment-related head tremors, ataxia, hypoactivity, and excessive salivation
Beagles; dog, in vivo
  clinical laboratory data: no evidence in the clinical laboratory data of an effect
  survival: survived until scheduled sacrifice
Wistar rats; oral 3 mg/kg
  Group mean (=sd) number pf abdominal spasms recorded in a 25-minute period: 31 ± 9.0
Wistar rats; oral 3 mg/kg, listed as HY-2901, 3 mg/kg
  Number of abdominal spasms recorded in a 25-minute period, individual animal data: 42 and 17 and 26 and 29 and 31 and 39
Wistar rats; oral 10 mg/kg
  Group mean (=sd) number pf abdominal spasms recorded in a 25-minute period: 25 ± 16.4
Wistar rats; oral 10 mg/kg, listed as HY-2901, 10 mg/kg
  Number of abdominal spasms recorded in a 25-minute period, individual animal data: 57 and 23 and 20 and 24 and 19 and 9
Wistar rats; oral 30 mg/kg
  Group mean (=sd) number pf abdominal spasms recorded in a 25-minute period: 17 ± 13.8
Wistar rats; oral 30 mg/kg, listed as HY-2901, 30 mg/kg
  Number of abdominal spasms recorded in a 25-minute period, individual animal data: 37 and 20 and 23 and 1 (2×) and 18
